US20210275488A1, “NOVEL COMPOUND ISOLATED FROM CERVI PARVUM CORNU, AND PHARMACEUTICAL USES THEREOF” (FNG RESEARCH CO., LTD., priority 2018, published 2021)

Experiments:
IL-6 = test: Inhibition of IL-6 production in LPS-induced mouse peritoneal macrophages (ELISA); assay type: cell-based; conditions: LPS (1 μg/ml), 12 hours
Method: (§1) As experimental animals, 8-week-old C57BL/6 mice were bred for 7 days under the environment of a temperature of 22±2° C., a relative humidity of 65±5% and a 12-hour cycle in light and dark, and then adapted to the laboratory environment, and then used for the experiment. Solid feed (Samyang feed) and water were sufficiently supplied.
(§2) HBSS was intraperitoneally injected into a mouse to extract macrophages, which was centrifuged at 3,000 rpm for 5 minutes, and then 100 units/mL of penicillin/streptomycin was added to DMEM medium with 10% fetal bovine serum (FBS), and peritoneal macrophage was isolated. It was incubated in a 37° C., 5% CO2 incubator for 24 hours, and then used in the experiment.
(§3) The secretion amount of IL-6, IL-1β and TNF-α secreted from mouse peritoneal macrophages induced by lipopolysaccharide (LPS), which is an inflammatory response inducer, was measured by an ELISA assay (Millipore, USA) to thereby evaluate the anti-inflammatory activity.
(§4) In order to obtain a cell culture solution, mouse peritoneal macrophages were adjusted to 3×10^5 cells/mL, inoculated into a 96-well plate, cultured for 24 hours, and then the compounds of Example 1 (PCA glycerol), Example 2 (CPA glycerol) and Comparative Example (PLA glycerol) were treated at different concentrations (10 μg/ml, 100 μg/ml, and 200 μg/ml, respectively), and LPS (1 μg/ml) was treated. The normal group was untreated, and the control group was treated with only LPS (1 μg/ml) on peritoneal macrophages. After culturing for 12 hours, a supernatant was obtained by centrifugation. ELISA was run in microplates coated with anti-mouse IL-6, IL-1β and TNF-α as the capture antibody. Then, the cells were washed with phosphate buffered saline (PBST) containing 0.05% Tween 20, blocked with 10% FBS, and washed with PBST. The cell culture supernatant was dispensed into the wells, and reacted at room temperature for 2 hours. After the reaction, washing was performed with PBST and dilute biotinylated anti-mouse IL-6, IL-1β and TNF-α detection antibody and streptavidin-horseradish peroxydase conjugate were dispensed and reacted at room temperature for 1 hour. Then, washing was performed again with PBST, and an OPD solution was added, and then the mixture was subjected to dark reaction at room temperature for 30 minutes. After the reaction was terminated with 2N H2504, the absorbance was measured at 450 nm using a microplate reader.

IL-1β = test: Inhibition of IL-1β production in LPS-induced mouse peritoneal macrophages (ELISA); assay type: cell-based; conditions: LPS (1 μg/ml), 12 hours
Method: as §1, §2, §3, §4

TNF-α = test: Inhibition of TNF-α production in LPS-induced mouse peritoneal macrophages (ELISA); assay type: cell-based; conditions: LPS (1 μg/ml), 12 hours
Method: as §1, §2, §3, §4

NO production = test: Inhibition of NO production in LPS-treated peritoneal macrophages (Griess reagent); assay type: cell-based, C57BL/6 mice; conditions: 24 hours, LPS control group = 100
Method: as §1, §2
The cultured peritoneal macrophages were suspended in DMEM containing 10% FBS, dispensed into a 96-well plate at 5×10^5 cells/well and incubated for 24 hours in a 37° C., 5% CO2 incubator, and replaced with new DMEM medium. Then, the peritoneal macrophages were treated with each of the compounds of Examples 1 and 2 and Comparative Example at different concentrations (10 μg/ml, 100 μg/ml, and 200 μg/ml, respectively), and LPS (1 μg/ml) was treated. Then, the cells were incubated for 24 hours. After incubation, the supernatant was separated, centrifuged at 3000 rpm for 5 minutes, and the separated supernatant was dispensed onto a new microplate. The normal group was untreated, and the control group was treated with only LPS (1 μg/ml) on the peritoneal macrophages.
The same amount of Griess reagent (1% sulfanilamide, 0.1% naphthyl-ethylenediamine dihydrochloride, 2% phosphoric acid) was treated, and reacted at room temperature for 10 minutes. After the culture solution was reacted with the Griess solution for […], the absorbance (OD) was measured at 540 nm.

[1] = tested on: neutropenia induced by an anticancer agent (gemcitabine); test: Mouse experiment of antineoplastic chemotherapy-induced neutropenia (gemcitabine); assay type: in vivo, C57BL/6 mice; conditions: for Number of neutrophils: Gemcitabine (50 mg/kg) i.p. daily 3 weeks, compound 50 mg/kg oral daily 3 weeks, neutrophils in 1 μl of blood; for reduction in the number of neutrophils: 3 weeks, relative to normal group
Method: 50 mg/kg of gemcitabine, used as an anticancer agent, was injected intraperitoneally into C57BL/6 mice every day for 3 weeks and used as a control group. 50 mg/kg of the compounds of Example 1, Example 2, and Comparative Example 1 were orally administered for 3 weeks every day, and after 3 weeks, the number of neutrophils in 1 μl of blood was measured using an automatic blood sample analyzer (Auto Hematology Analyzer BC-5900, Mindray), and the results are shown in Table 7 and FIG. 11 below.

[2] = tested on: neutropenia induced by an anticancer agent (tamoxifen); test: Mouse experiment of antineoplastic chemotherapy-induced neutropenia (tamoxifen); assay type: in vivo, C57BL/6 mice; conditions: for Number of neutrophils: Tamoxifen (50 mg/kg) i.p. daily 3 weeks, compound 50 mg/kg oral daily 3 weeks, neutrophils in 1 μl of blood; for decrease in the number of neutrophils: tamoxifen 50 mg/kg plus compound 50 mg/kg oral
Method: 50 mg/kg of Tamoxifen, used as an anticancer agent, was intraperitoneally injected into C57BL/6 mice every day for 3 weeks and used as a control group, and 50 mg/kg of the compounds of Example 1, Example 2, and Comparative Example 1 were orally administered for 3 weeks every day, and after 3 weeks, the number of neutrophils in 1 μl of blood was measured using an automatic blood sample analyzer (Auto Hematology Analyzer BC-5900, Mindray), and the results are shown in Table 8 and FIG. 12 below.

peritoneal macrophages = test: Evaluation of cytotoxicity using MTT assay; assay type: cell-based, C57BL/6 mice; conditions: 24 hours
Method: as §1, §2
100 uL of the cultured peritoneal macrophages were dispensed into a 96-well plate at 3×10^5 cells/well and cultured overnight. After removing the medium, the peritoneal macrophage was treated with the compounds of Example 1 (PCA glycerol) and Example 2 (CPA glycerol) at different concentrations (10 μg/ml, 100 μg/ml, and 200 μg/ml, respectively), and then incubated for 24 hours in a 37° C., 5% CO2 incubator. After incubation, the medium was removed, 40 uL of MTT (5 mg/mL) reagent was dispensed and incubated for 4 hours in a CO2 incubator, the MTT reagent was removed, and 600 uL of DMSO reagent was dispensed, and then left at room temperature for 30 minutes. Then, the absorbance (OD) was measured at 540 nm with a microplate reader.

[3] = gemcitabine 50 mg/kg plus compound 50 mg/kg oral
[4] = 3 weeks, relative to normal group

Row | Compound | IL-6 production amount (IL-6; compound 10 μg/ml) | IL-6 production amount (IL-6; compound 100 μg/ml) | IL-6 production amount (IL-6; compound 200 μg/ml) | IL-1β Production amount (IL-1β; compound 10 μg/ml) | IL-1β Production amount (IL-1β; compound 100 μg/ml) | IL-1β Production amount (IL-1β; compound 200 μg/ml) | TNF-α production amount (TNF-α; compound 10 μg/ml) | TNF-α production amount (TNF-α; compound 100 μg/ml) | TNF-α production amount (TNF-α; compound 200 μg/ml) | NO production rate (%) (NO production; compound 10 μg/ml) | NO production rate (%) (NO production; compound 100 μg/ml) | NO production rate (%) (NO production; compound 200 μg/ml) | Number of neutrophils [1] | reduction in the number of neutrophils [1, 3] | Number of neutrophils [2] | decrease in the number of neutrophils [2, 4] | Cell viability (%) (peritoneal macrophages; 10 μg/ml) | Cell viability (%) (peritoneal macrophages; 100 μg/ml) | Cell viability (%) (peritoneal macrophages; 200 μg/ml) | further results
1 | CCCCC/C=C\C/C=C\CCCCCCCC(=O)OC(COC(C)=O)COC(=O)CCCCCCCCCCCCCCC (centres unmarked) [Comparative Example, 1-Palmitoyl-2-Linoleoyl-3-Acetyl Glycerol, reference compound] | 364 ± 16 pg/mL | 251 ± 24 pg/mL | 203 ± 25 pg/mL | 43 ± 2.2 pg/mL | 31 ± 2.4 pg/mL | 31 ± 3.1 pg/mL | 184 ± 21 pg/mL | 155 ± 12 pg/mL | 137 ± 7 pg/mL | 56 ± 3% | 45 ± 2% | 41 ± 3% | 1047 ± 42 µL⁻¹ | 14.5% | 1066 ± 88 µL⁻¹ | 12.9% |  |  |  | 
2 | Nc1ccn([C@@H]2O[C@H](CO)[C@@H](O)C2(F)F)c(=O)n1 [gemcitabine, reference compound] |  |  |  |  |  |  |  |  |  |  |  |  |  |  |  |  |  |  |  | reduction in the number of neutrophils ([1]; mice treated with gemcitabine 50 mg/kg i.p. alone (control group)): about 45%
3 | 1-Palmitoyl-2-Conjugated-Linoleoyl-3-Acetyl Glycerol [Example 1] | 321 ± 22 pg/mL | 225 ± 23 pg/mL | 180 ± 25 pg/mL | 40 ± 2.9 pg/mL | 28 ± 2.3 pg/mL | 26 ± 2.8 pg/mL | 170 ± 8 pg/mL | 153 ± 11 pg/mL | 121 ± 10 pg/mL | 52 ± 3% | 43 ± 3% | 37 ± 4% | 1198 ± 43 µL⁻¹ | about 2% | 1146 ± 63 µL⁻¹ | about 6.3% | 100 ± 2.1% | 98.3 ± 1.9% | 98.1 ± 1.2% | 
4 | 1-Conjugated-Linoeoyl-2-Palmitoyl-3-Acetyl Glycerol [Example 2] | 325 ± 13 pg/mL | 234 ± 20 pg/mL | 179 ± 17 pg/mL | 40 ± 1.7 pg/mL | 32 ± 2.4 pg/mL | 28 ± 1.7 pg/mL | 175 ± 7 pg/mL | 151 ± 10 pg/mL | 123 ± 7 pg/mL | 50 ± 2% | 44 ± 3% | 34 ± 1% | 1142 ± 62 µL⁻¹ | 6.7% | 1124 ± 57 µL⁻¹ | about 8.2% | 100 ± 0.9% | 98.3 ± 1.7% | 98.0 ± 2.8% | 
5 | CC/C(=C(\c1ccccc1)c1ccc(OCCN(C)C)cc1)c1ccccc1 [tamoxifen, Tamoxifen, reference compound] |  |  |  |  |  |  |  |  |  |  |  |  |  |  |  |  |  |  |  | decrease in number of neutrophils ([2]; mice treated with tamoxifen 50 mg/kg i.p. alone (control group), 3 weeks, relative to normal group): about 37%
